Reference: patent publication US11866433B2, “Diarylthiohydantoin compound as androgen receptor antagonist” (CHIA TAI TIANQING PHARMACEUTICAL GROUP CO., LTD., priority 2017, dated 2024)

Tests used:
androgen receptor (AR) = molecular target: T1, androgen receptor (AR) (Homo sapiens, UniProt P10275); assay: Antagonism of compounds on nuclear translocation of androgen receptor (PathHunter NHR cell lines); assay type: cell-based; settings: antagonist mode, agonist 6a-Fluorotestosterone 0.06 μM (EC80)
T1 sequence (P10275 1-920): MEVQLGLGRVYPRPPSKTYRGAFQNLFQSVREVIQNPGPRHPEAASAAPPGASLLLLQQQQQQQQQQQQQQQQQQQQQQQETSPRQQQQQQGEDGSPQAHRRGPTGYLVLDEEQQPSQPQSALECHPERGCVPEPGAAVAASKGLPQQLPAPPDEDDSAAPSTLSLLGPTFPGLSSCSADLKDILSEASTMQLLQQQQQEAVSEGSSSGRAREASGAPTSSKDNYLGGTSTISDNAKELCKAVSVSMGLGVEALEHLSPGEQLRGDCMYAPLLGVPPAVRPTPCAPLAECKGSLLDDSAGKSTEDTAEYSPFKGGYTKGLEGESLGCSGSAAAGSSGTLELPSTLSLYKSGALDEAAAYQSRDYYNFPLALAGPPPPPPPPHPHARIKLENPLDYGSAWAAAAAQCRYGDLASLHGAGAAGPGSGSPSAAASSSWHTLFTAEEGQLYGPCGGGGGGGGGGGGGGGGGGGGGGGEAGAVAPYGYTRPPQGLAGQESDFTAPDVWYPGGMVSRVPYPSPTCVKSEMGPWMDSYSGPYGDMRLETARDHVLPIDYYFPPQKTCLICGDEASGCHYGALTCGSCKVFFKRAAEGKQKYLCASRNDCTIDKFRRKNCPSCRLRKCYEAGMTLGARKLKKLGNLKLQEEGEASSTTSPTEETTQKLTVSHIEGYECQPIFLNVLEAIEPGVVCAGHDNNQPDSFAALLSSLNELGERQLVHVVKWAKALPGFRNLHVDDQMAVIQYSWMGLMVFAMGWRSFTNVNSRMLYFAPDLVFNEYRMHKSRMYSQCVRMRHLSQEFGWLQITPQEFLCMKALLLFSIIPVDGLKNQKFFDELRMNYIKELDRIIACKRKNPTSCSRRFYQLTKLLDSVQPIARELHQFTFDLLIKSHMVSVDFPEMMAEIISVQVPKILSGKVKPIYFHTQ
Description: Example 75 Test of Antagonism of Compounds on Nuclear Translocation of Androgen Receptor (AR)
1. PathHunter NHR cell lines were recovered and cultured for amplification.
2. The cells were inoculated onto a 384-well plate prior to testing, and incubated at 37° C. The serum for culture was filtered with charcoal-dextran to reduce the hormone level therein.
3. In the detection of the antagonistic function, a compound was added to the cells and incubated for 60 min. The working concentration of the test compound was diluted from 10 μM at a 3-fold concentration gradient, respectively including: […]. Then, an agonist 6a-Fluorotestosterone 0.06 μM (concentration: EC80, i.e., 80% agonistic compound concentration) was added, and the mixture was incubated at 37° C. or at room temperature for 3-16 h.
4. Signal detection: 12.5 μL or 15 μL (50%, v/v) PathHunter detection mixed solution (kit: DiscoverX product catalog number: 93-0001 series) was added, and incubated at room temperature for 1 h. The chemiluminescent signal was read with a PerkinElmer Envision™ instrument.
5. Data analysis: The compound activity was analyzed with CBIS data analysis software (ChemInnovation, CA). The calculation formula of the inhibition percent of the antagonist is as follows: IC50 inhibition ratio (%)=[…]×(1−(average RLU value of the test compound−average RLU value of the blank control group)/(average RLU value of EC80 control group−average RLU value of the blank control group)).

[1] = test system: Human prostate cancer LNCaP-FGC cells; assay: In vivo pharmacodynamic study on subcutaneous xenograft tumor model of human prostate cancer LNCaP-FGC cells; design: species or system CB-17 SCID mice; settings: after 21 days of administration, vs solvent control
Description: 2.1 Experimental Animals • Species: Mice • Strain: CB-17 SCID mice • Week age and body weight: 6-8 weeks old, 18-22 g body weight • Gender: male • Supplier: Beijing Vital River Laboratory Animal Technology Co., Ltd • Animal Certificate No.: 11400700184227 3. Experimental Method and Steps 3.1 Cell Culture
Human prostate cancer LNCaP-FGC cells (ATCC, Manassas, Virginia) were cultured in vitro monolayers under the culture conditions of RPM11640 medium supplemented with […] fetal bovine serum at 37° C. with 5% CO2. Routine digestion treatment with trypsin-EDTA was performed twice a week for passage. When the cell saturation was 80%-90%, the cells were collected, counted, and inoculated.
0.2 mL (10×10^6) of LNCaP-FGC cells (10×10^6+Matrigel, 1:1) was inoculated subcutaneously to the right back of each CB-17 SCID mouse. When the average tumor volume reached 100-150 mm^3, administration in groups was started.
The tumor diameters were measured with a vernier caliper twice a week. The calculation formula of the tumor volume is: V=0.5a×b^2, wherein a and b represent the long diameter and the short diameter of the tumor, respectively. The antitumor efficacy of the compounds were evaluated by TGI (%) or a relative tumor proliferation rate T/C (%). TGI(%)=[(1−(average tumor volume of a treatment group at the end of drug administration−average tumor volume of the treatment group at the beginning of drug administration))/(average tumor volume of the vehicle control group at the end of treatment−average tumor volume of the vehicle control group at the beginning of treatment)]×100%. The calculation formula of the relative tumor proliferation rate T/C (%) is as follows: T/C %=TRTV/CRTV×100% (TRTV: RTV of a treatment group; CRTV: RTV of a negative control group). The relative tumor volume (RTV) is calculated based on the tumor measurement results, and the calculation formula is RTV=Vt/V0, wherein V0 is the average tumor volume measured at the time of administration in groups (i.e., do), Vt is the average tumor volume at one measurement, and TRTV and CRTV are the data obtained on the same day.
The statistical analysis includes mean and standard error of mean (SEM) of the tumor volume at each time point for each group. […] The comparison between two groups was analyzed by T-test, and the comparison between three or more groups was analyzed by one-way ANOVA. If there was a significant difference in the F value, the Games-Howell method was used for testing. If there was no significant difference in the F value, the Dunnet (2-sided) method was used for analysis. All data analysis was performed by using SPSS 17.0. “p<0.05” was considered a significant difference.

| Structure (SMILES) | IC50 (androgen receptor (AR)) [µM] | TGI ([1]; 50 mg/kg PO QD) [%] | relative tumor proliferation rate T/C ([1]; 50 mg/kg PO QD) [%] | TGI ([1]; 10 mg/kg PO QD) [%] | relative tumor proliferation rate T/C ([1]; 10 mg/kg PO QD) [%] | TGI ([1]; 20 mg/kg PO QD) [%] | relative tumor proliferation rate T/C ([1]; 20 mg/kg PO QD) [%] |
| --- | --- | --- | --- | --- | --- | --- | --- |
| CCc1nc(OCCO)c2cc(N3C(=S)N(c4ccc(C#N)c(C(F)(F)F)c4)C(=O)C3(C)C)cc(F)c2n1 [Compound 10] | 1.71 | 83.0 | 23.8 | – | – | – | – |
| CCc1cc(=O)n2cc(N3C(=S)N(c4ccc(C#N)c(C(F)(F)F)c4)C(=O)C3(C)C)cc(F)c2n1 [Compound 35] | 2.31 | – | – | 59.36 | 47.39 | 76.00 | 32.47 |
| CCc1cc(=O)n2cc(N3C(=S)N(c4ccc(C#N)c(Cl)c4)C(=O)C3(C)C)cc(F)c2n1 [Compound 58] | 0.95 | – | – | 62.75 | 43.93 | 76.16 | 32.37 |
